For assay [1], the target named is T1, VEGFR2 (Homo sapiens, UniProt P35968).
T1 construct: purchased Upstate
Briefly: VEGFR2 in vitro kinase inhibitory activity assay. The format is biochemical. Conditions: read-out: VEGFR2 IC50(μM) or % I.

The subject of assay [2] is Ba/F3-Flt3 cells. As to the kind of experiment: Ba/F3-Flt3 assay (Alamar Blue). The format is cell-based, murine. Conditions: Mus musculus, 24 h; with 10 ng/ml murine IL3; read-out: Ba/F3-flt3 + IL3 pIC50 (converted). The procedure, abridged: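 Ba/F3-Flt3 cells in phenol red-free RPMI-1640 with 10% FCS were plated, and compound dilutions were added 24 h later at 0.2% DMSO final. After 24 h at 37 °C, Alamar Blue was added for 4 h and fluorescence was read (ex 544/em 590 nm) to derive IC50. The IL3 condition added 10 ng/ml murine IL3 during compound exposure.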
Background: Resazurin is reduced to fluorescent resorufin, in cell work by metabolically active cells.

The target of assay [3] is T2, Ba/F3-TEL-FGFR3 cells (Homo sapiens, UniProt P22607).
T2 construct: fused on or other part: TEL (ETV6) N-terminal oligomerising part fused to the FGFR3 kinase part; P41212 (Transcription factor ETV6)
Briefly: Ba/F3-TEL-FGFR3 cell proliferation assay (Alamar Blue). The format is cell-based, murine. The following applies: 72 hours; read-out: BaF3-TEL-FGFR3 prolif. The procedure, abridged:
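Ba/F3-TEL-FGFR3 cells (5×10^3/well, G418) and parental Ba/F3 (2.5×10^3/well, 2 ng/ml mouse IL-3) in RPMI/10% FBS, plated overnight, then compound for 72 h at 0.1% DMSO final. Alamar Blue 4-6 h, fluorescence 535/590 nm; IC50 where inhibition high.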

The test system of assay [4] is human prostate cancer PC3 cells. As to the kind of experiment: EB1 cellular assay (Eb1 Comet assay, microtubule disruption). The format is cell-based. The following applies: PC-3, lowest active concentration: Eb1 foci absent in at least 50% of treated PC3 cells, 1 hour, read-out: Eb1 LAC. The method in brief:
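PC3 cells treated with compounds for 1 hour at 37° C (0.6% final DMSO), methanol-fixed, and stained for Eb1 by indirect immunofluorescence with Hoechst counterstain. Eb1 foci imaged at 20×. LAC is the lowest concentration at which foci are absent in at least 50% of cells, reported as pLAC.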

A value given as a limit tells only on which side of the number the result lay.

T1 sequence (P35968 20-1356): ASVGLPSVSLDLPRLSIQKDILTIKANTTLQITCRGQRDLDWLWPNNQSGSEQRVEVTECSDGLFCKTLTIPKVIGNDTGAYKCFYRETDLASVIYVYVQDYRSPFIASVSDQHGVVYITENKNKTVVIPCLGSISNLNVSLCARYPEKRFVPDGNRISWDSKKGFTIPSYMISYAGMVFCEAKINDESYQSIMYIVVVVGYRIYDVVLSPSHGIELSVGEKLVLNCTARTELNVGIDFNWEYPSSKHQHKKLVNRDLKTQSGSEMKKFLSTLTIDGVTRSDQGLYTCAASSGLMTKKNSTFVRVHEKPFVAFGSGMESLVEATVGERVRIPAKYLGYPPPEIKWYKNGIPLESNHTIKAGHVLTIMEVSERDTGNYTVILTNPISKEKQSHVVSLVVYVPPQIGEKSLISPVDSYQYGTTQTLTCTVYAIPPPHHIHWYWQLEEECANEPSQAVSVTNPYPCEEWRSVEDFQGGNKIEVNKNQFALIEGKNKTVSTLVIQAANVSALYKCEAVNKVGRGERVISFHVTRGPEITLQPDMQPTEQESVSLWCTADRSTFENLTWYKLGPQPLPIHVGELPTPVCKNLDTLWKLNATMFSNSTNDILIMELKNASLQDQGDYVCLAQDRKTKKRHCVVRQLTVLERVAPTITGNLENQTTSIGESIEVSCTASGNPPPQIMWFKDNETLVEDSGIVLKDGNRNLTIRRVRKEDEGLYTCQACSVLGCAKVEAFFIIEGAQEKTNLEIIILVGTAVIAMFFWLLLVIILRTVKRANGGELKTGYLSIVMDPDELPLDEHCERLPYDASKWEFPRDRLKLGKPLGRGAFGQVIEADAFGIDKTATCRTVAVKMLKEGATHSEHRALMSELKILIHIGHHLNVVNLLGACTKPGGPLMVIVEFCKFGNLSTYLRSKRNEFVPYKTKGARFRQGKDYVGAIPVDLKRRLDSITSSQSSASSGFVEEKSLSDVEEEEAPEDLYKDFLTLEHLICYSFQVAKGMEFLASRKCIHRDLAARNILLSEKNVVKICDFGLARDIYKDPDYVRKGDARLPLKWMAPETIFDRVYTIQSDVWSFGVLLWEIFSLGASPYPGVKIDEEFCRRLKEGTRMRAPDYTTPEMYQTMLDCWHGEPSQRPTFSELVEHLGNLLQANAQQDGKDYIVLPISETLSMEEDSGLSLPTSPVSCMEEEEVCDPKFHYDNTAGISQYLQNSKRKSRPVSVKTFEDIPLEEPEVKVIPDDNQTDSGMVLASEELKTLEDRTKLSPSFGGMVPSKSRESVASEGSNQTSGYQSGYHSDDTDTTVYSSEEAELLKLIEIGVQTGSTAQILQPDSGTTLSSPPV
T2 sequence (P22607 whole entry, change not shown, the tested form may be a part): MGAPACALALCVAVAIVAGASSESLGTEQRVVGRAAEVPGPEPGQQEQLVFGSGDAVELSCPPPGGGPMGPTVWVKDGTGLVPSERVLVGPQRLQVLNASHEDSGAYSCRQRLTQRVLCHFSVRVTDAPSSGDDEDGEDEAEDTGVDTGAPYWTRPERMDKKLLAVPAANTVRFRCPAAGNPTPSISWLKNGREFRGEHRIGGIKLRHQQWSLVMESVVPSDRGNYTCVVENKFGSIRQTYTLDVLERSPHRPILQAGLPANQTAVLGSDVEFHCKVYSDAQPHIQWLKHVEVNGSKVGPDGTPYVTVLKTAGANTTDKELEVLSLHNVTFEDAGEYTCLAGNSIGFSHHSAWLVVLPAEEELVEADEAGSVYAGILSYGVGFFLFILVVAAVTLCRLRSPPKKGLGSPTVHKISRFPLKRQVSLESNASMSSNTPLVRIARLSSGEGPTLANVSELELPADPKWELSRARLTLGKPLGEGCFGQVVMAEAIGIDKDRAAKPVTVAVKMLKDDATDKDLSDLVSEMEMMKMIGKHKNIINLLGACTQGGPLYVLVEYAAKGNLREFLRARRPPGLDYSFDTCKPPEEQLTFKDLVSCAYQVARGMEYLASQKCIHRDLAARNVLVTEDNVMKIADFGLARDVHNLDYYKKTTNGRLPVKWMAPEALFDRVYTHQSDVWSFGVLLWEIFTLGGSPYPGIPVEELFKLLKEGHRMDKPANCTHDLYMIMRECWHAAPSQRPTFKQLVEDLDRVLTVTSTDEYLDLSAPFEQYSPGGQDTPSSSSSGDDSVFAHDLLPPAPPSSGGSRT

`Cc1cn(-c2ccn3c(-c4cc(NC(=O)NCC(F)(F)F)cc(OC(C)C)c4)cnc3c2)cn1` [Compound F-28, 1-{3-Isopropoxy-5-[7-(4-methylimidazol-1-yl)-imidazo[1,2-a]pyridin-3-yl]-phenyl}-3-(2,2,2-trifluoro-ethyl)-urea]: the IC50 in assay [1] is 0.077 µM; in assay [2], > 10000 nM. Also, the GI50 in assay [3] came out at 100 nM. The minimal effective concentration in assay [4] was determined as 5 µM.

`CC(C)Oc1cc(NC(=O)NCC(F)(F)F)cc(-c2cnc3cc(-c4nccc(C(C)C)n4)ccn23)c1` [Compound F-29, 1-{3-Isopropoxy-5-[7-(4-isopropyl-pyrimidin-2-yl)-imidazo[1,2-a]pyridin-3-yl]-phenyl}-3-(2,2,2-trifluoroethyl)-urea]: the inhibition at 10 µM in assay [1] (1 h, % I at 10 μM) came to 53%. In addition, in assay [2], the IC50 is > 10000 nM. Also, the GI50 in assay [3] is 3160 nM. Also, the minimal effective concentration in assay [4] is > 10 µM.
